# Measurements published in US8846601B2, “Melanocortin receptor-specific peptides” (Palatin Technologies, Inc., priority 2009, dated 2014).
# What was measured:
# hMC3-R = hMC3-R (Homo sapiens (Human), UniProt P41968); experiment: Competitive inhibition binding assay using [I125]-NDP-α-MSH, MC3-R
# Description: A competitive inhibition binding assay is performed using membrane homogenates prepared from HEK-293 cells that express recombinant hMC4-R, hMC3-R, or hMC5-R, and from B-16 mouse melanoma cells (containing endogenous MC1-R). In some instances, HEK-293 cells that express recombinant hMC1-R were employed. In the examples that follow, all MC3-R, MC4-R and MC5-R values are for human recombinant receptors. […] Membrane homogenates were incubated with 0.2 nM (for hMC4-R) 0.4 nM (for MC3-R and MC5-R) or 0.1 nM (for mouse B16 MC1-R or hMC1-R) [I^125]-NDP-α-MSH (Perkin Elmer) and increasing concentrations of test peptides of the present invention in buffer containing 25 mM HEPES buffer (pH 7.5) with 100 mM NaCl, 2 mM CaCl2, 2 mM MgCl2, 0.3 mM 1,10-phenanthroline, and 0.2% bovine serum albumin. After incubation for 60 minutes at 37° C., the assay mixture was filtered and the membranes washed three times with ice-cold buffer. Filters were dried and counted in a gamma counter for bound radioactivity. […] Maximal specific binding (100%) was defined as the difference in radioactivity (cpm) bound to cell membranes in the absence and presence of 1 μM NDP-α-MSH. […] Each assay was conducted in triplicate and the actual mean values are described, with results less than 0% reported as 0%. Ki values for test peptides of the present invention were determined using Graph-Pad Prism® curve-fitting software.
# [1] = biological target: T1, MC1-R (B-16 mouse melanoma cells) (Mus musculus (Mouse), UniProt Q01727); experiment: Competitive binding using Eu-labeled NDP-α-MSH, MC1-R
# Description: A competitive inhibition binding assay is performed using membrane homogenates prepared from HEK-293 cells that express recombinant hMC4-R, hMC3-R, or hMC5-R, and from B-16 mouse melanoma cells (containing endogenous MC1-R). In some instances, HEK-293 cells that express recombinant hMC1-R were employed. In the examples that follow, all MC3-R, MC4-R and MC5-R values are for human recombinant receptors. MC1-R values are for B-16 mouse melanoma cells, unless the heading is “hMC1-R”, in which case the value is for human recombinant MC1-R. Assays were performed in 96 well GF/B Millipore multiscreen filtration plates (MAFB NOB10) pre-coated with 0.5% bovine serum albumin (Fraction V). Membrane homogenates were incubated with 0.2 nM (for hMC4-R) 0.4 nM (for MC3-R and MC5-R) or 0.1 nM (for mouse B16 MC1-R or hMC1-R) [I^125]-NDP-α-MSH (Perkin Elmer) and increasing concentrations of test peptides of the present invention in buffer containing 25 mM HEPES buffer (pH 7.5) with 100 mM NaCl, 2 mM CaCl2, 2 mM MgCl2, 0.3 mM 1,10-phenanthroline, and 0.2% bovine serum albumin. After incubation for 60 minutes at 37° C., the assay mixture was filtered and the membranes washed three times with ice-cold buffer. Filters were dried and counted in a gamma counter for bound radioactivity. […] Maximal specific binding (100%) was defined as the difference in radioactivity (cpm) bound to cell membranes in the absence and presence of 1 μM NDP-α-MSH. […] Ki values for test peptides of the present invention were determined using Graph-Pad Prism® curve-fitting software.
# Alternatively, a competitive inhibition binding assay was performed employing Eu-NDP-α-MSH (PerkinElmer Life Sciences catalog No. AD0225) with determination by time-resolved fluorometry (TRF) of the lanthanide chelate. […] The plates were incubated on a shaker for 15 minutes and read at 340 nm excitation and 615 nm emission wavelengths. […] Ki values were determined by curve-fitting with Graph-Pad Prism® software using a one-site fixed-slope competition binding model.
# hMC4-R = hMC4-R (Homo sapiens (Human), UniProt P32245); experiment: Assay for agonist activity: cAMP accumulation in HEK-293 cells that express hMC4-R; conditions: agonist = intrinsic activity 70% or higher; partial agonist 10-70%
# Description: By “intrinsic activity” is meant the maximal functional activity achievable by a compound in a specified melanocortin receptor expressing cell system, such as the maximal stimulation of adenylyl cyclase.
# Accumulation of intracellular cAMP was examined as a measure of the ability of the peptides of the present invention to elicit a functional response in HEK-293 cells that express MC4-R. Confluent HEK-293 cells that express recombinant hMC4-R were detached from culture plates by incubation in enzyme-free cell dissociation buffer. Dispersed cells were suspended in Earle's Balanced Salt Solution containing 10 mM HEPES (pH 7.5), 1 mM MgCl2, 1 mM glutamine, 0.5% albumin and 0.3 mM 3-isobutyl-1-methyl-xanthine (IBMX), a phosphodiesterase inhibitor. […] Cells were exposed for 15 minutes at 37° C. to peptides of the present invention dissolved in DMSO (final DMSO concentration of 1%) at a concentration range of 0.05-5000 nM in a total assay volume of 200 μL. […] Data analysis was performed by nonlinear regression analysis with Graph-Pad Prism® software. The maximum efficacies of the test peptides of the present invention were compared to that achieved by the reference melanocortin agonist NDP-αMSH.
# Male Sprague-Dawley rats = experiment: Induction of penile erection in male rats; assay type: in vivo, rat; conditions: rats, subcutaneous, doses of 1, 3 or 10 mg/kg
# Source text: Each dose group contained six or seven animals, with video observation for sixty minutes following administration.
# [2] = biological target: T1, MC1-R (B-16 mouse melanoma cells); experiment: Competitive inhibition binding assay using [I125]-NDP-α-MSH, MC1-R
# Description: A competitive inhibition binding assay is performed using membrane homogenates prepared from HEK-293 cells that express recombinant hMC4-R, hMC3-R, or hMC5-R, and from B-16 mouse melanoma cells (containing endogenous MC1-R). In some instances, HEK-293 cells that express recombinant hMC1-R were employed. In the examples that follow, all MC3-R, MC4-R and MC5-R values are for human recombinant receptors. MC1-R values are for B-16 mouse melanoma cells, unless the heading is “hMC1-R”, in which case the value is for human recombinant MC1-R. Assays were performed in 96 well GF/B Millipore multiscreen filtration plates (MAFB NOB10) pre-coated with 0.5% bovine serum albumin (Fraction V). […] Filters were dried and counted in a gamma counter for bound radioactivity. […] Maximal specific binding (100%) was defined as the difference in radioactivity (cpm) bound to cell membranes in the absence and presence of 1 μM NDP-α-MSH. […] Ki values for test peptides of the present invention were determined using Graph-Pad Prism® curve-fitting software.
# T1 sequence (Q01727 whole entry): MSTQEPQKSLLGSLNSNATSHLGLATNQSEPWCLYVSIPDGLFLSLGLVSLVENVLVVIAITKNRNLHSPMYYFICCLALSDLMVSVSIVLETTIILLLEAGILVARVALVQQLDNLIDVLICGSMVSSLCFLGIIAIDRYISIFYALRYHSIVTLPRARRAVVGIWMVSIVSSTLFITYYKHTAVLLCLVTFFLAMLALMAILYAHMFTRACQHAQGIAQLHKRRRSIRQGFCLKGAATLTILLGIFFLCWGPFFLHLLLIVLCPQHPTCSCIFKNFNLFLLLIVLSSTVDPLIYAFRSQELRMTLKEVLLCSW
# Sequence of hMC3-R (P41968 whole entry): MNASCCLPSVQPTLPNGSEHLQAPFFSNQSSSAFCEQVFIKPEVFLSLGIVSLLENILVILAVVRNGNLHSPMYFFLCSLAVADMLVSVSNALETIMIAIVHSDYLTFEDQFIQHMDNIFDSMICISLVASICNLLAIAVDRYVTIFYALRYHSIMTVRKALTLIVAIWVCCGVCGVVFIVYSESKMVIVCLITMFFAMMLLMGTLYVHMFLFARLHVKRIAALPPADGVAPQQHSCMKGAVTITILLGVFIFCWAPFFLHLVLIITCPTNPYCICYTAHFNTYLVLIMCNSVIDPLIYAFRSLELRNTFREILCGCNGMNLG
# Sequence of hMC4-R (P32245 whole entry): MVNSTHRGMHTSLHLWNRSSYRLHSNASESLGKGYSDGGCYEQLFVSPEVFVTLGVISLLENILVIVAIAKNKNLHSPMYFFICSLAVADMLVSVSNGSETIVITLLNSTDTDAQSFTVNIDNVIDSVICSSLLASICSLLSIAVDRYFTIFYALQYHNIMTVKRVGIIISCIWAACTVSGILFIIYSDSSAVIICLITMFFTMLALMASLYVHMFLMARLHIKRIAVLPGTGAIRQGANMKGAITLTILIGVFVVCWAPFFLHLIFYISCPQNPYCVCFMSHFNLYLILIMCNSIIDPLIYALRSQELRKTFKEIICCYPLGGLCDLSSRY
compound,measurement,setting,value
"CC(=O)N[C@@H](CCCNC(=N)N)C(=O)N[C@H]1CC(=O)NCCCC[C@@H](C(N)=O)NC(=O)[C@H](Cc2c[nH]c3ccccc23)NC(=O)[C@H](CCCNC(=N)N)NC(=O)[C@@H](Cc2ccccc2)NC(=O)[C@H](CCC(N)=O)NC1=O [Peptide No. 32, Ac-Arg-cyclo(Asp-Gln- D-Phe-Arg-Trp-Lys)- NH2]",Ki,hMC3-R,340 nM
same,Ki,[1],673 nM
same,functional status at MC4-R (agonist / partial agonist),hMC4-R,agonist
same,observed spontaneous erections,Male Sprague-Dawley rats,increase in observed spontaneous erections
same,Ki,[2],133 nM
